Assay [1] relates to HIV-1 (Gag) gene expression. Briefly: HIV-1 (Gag) gene expression in HeLa rtTA-HIV-ΔMls cells, p24CA ELISA dose response. The format is cell-based, HIV-1 (LAI). The method, then:
Drug/compounds were tested for effects on HIV-1 gene expression using inducible Tet-ON HIV-1 cell lines [HeLa rtTA-HIV-ΔMls or rtTA-HIV(Gag-GFP)] containing a HIV-1 (LAI) provirus activatable by Dox or tetracycline transactivator (tTA)[69]. The rtTA-HIV-ΔMls provirus was modified and used as previously reported[9]–[11],[70]. The rtTA-HIV(Gag-GFP) provirus was generated by deletion of the PR and RT coding regions within pol and insertion of GFP to the 3′ of gag, creating GFP fused to the C-terminal of Gag. After 4 h of drug/compound treatment, HIV-1 gene expression was activated with Dox (2 μg/mL) or tTA (described below). Equal concentrations of DMSO were present in each experiment. After ~20 h, cells and media were harvested to monitor the effects of drug/compound treatments as described below. HIV-1 gene expression was quantified via p24^CA ELISA or monitoring Gag-GFP fluorescence in cells as described below. In parallel, cell viability of treatments were assessed by XTT assay (Sigma-Aldrich, #TOX2).
Drug/compounds were purchased from Sigma (Digoxin, #D6003; Digitoxin, #D5878; Digoxigenin, #D9026; Digitoxigenin, #D9404; Ouabain, #O3125; Bufalin, #S961175; Cinobufagin, #C1272; and Anisomycin, #A9789) and derivatives of convallatoxin were synthesized from C. Lingwood’s lab of the Hospital for Sick Children (convallatoxin, peruvoside, RIDK-34, -36, -20, -21, -27, and -28). […] Recombinant human EGF was from Invitrogen (#PHG0314). Chemical structures were drawn in ChemSketch (ACD/Labs).
To monitor HIV-1 gene expression or replication, Gag release into cell culture supernatants were assayed by ELISA using a p24^CA antigen capture assay kit (AIDS & Cancer Virus Program, NCI-Frederick, Frederick, MD USA). Media harvested from HIV clinical isolates were diluted ~10 fold (or as necessary) prior to performing this assay. For analysis of HIV-1 and SR protein expression (and phosphorylation states with calf intestinal alkaline phosphatase treatments), cells were lysed and analyzed by western blot as previously outlined. Phosphatase inhibitors (e.g. 10 mM sodium fluoride, 2 mM sodium orthovanadate) were added to solutions requiring phospho protein analyses. An anti-chicken NKA antibody (α6F, #a6F–c, Developmental Studies Hybridoma Bank, The University of Iowa, contributed by Douglas M. Fambrough, The Johns Hopkins University) was used as specified to detect NKA α1- and β1-subunits across species. […] Activation of MAPKs was determined by western blot quantitation and calculation of phospho/total protein levels. […] Images were exported as TIF files for assembly, rotation, and equal brightness/contrast adjustments in ImageJ or Microsoft Powerpoint. Some lanes were cropped and rearranged from the same blot/gel as indicated. In representative gel/blot sets, samples were electrophoresed from the same experiment as controls, resolved simultaneously on identically cast gel(s), transferred to same PVDF (by either wet electrophoretic or by Bio-Rad Trans-Blot® Turbo Transfer System), and detected at same time. Marked locations of molecular weight (MW) standards are shown on the left as a reference. […] SUnSET analysis of total cellular protein synthesis. HeLa rtTA-HIV-ΔMls cells were cultured in the presence/absence of compound and pathway inhibitor (if any) and Dox induced for ~24 h as already described, then treated with puromycin (10 μg/mL, Sigma-Aldrich, #P8833) for 30 min to label nascent proteins prior to harvest. As control, 10 µM of cycloheximide (Sigma-Aldrich, #C4849) was added to some cells prior to puromycin treatment. Cells were subsequently washed, whole cell lysates prepared, and proteins quantified by western blot using an anti-puromycin antibody (EMD Millipore, #anti-12D10) as described above. Transfection of plasmid DNA into cells.
A general note: In an ELISA, binding on a coated surface is turned into a signal by an enzyme label.

Another assay concerns HIV-1 US RNAs. Kind of assay: FISH localization of HIV-1 US RNA in HeLa rtTA-HIV(Gag-GFP) cells. The format is cell-based. As to conditions: ~IC90s of CSs. The source says:
Figure 4 CSs suppress HIV-1 gene expression by altering viral RNA processing. […] (a,b) CSs induce oversplicing of HIV-1 RNAs (n ≥ 3, mean, s.e.m.). (a) Diagram of the primer positions (arrow heads) used for qRT-PCR. (b) Graph of the relative amount of US (black), SS (white), and MS (gray) HIV-1 RNAs in cells treated with various CSs. (c) Nuclear export of HIV-1 US RNAs in cells is altered by CSs (representative n ≥ 4). HIV-1 US RNAs were localized by FISH after treating HeLa rtTA-HIV(Gag-GFP) cells as described above but with ~IC90s of CSs. Nuclei were stained by DAPI and images captured at 630 × magnification. (d) CSs induce differential post-translational modification of SR proteins (representative n ≥ 3). SRp20, Tra2β, and tubulin were analyzed by immunoblot of HeLa rtTA-HIV-ΔMls cells treated as described above except cells of this representative blot were treated 3 d with ~IC50s of CSs. (g) Lanes were cropped and assembled from the same gel/blot per box (Supplementary Fig. S4d).
RNA was extracted from cells, reverse transcribed, and resulting cDNAs subject to qRT-PCR quantification of HIV-1 mRNAs as previously described except reactions used iTaq™ Universal SYBR® Green Supermix (Bio-Rad, #172-5120) run on a Bio-Rad CFX384 Touch™ Real-Time PCR Detection System and analyzed with CFX Manager™[9]. NKA α1, 2, and 3 subunits were detected by published primers, amplified by iTaq using the same cycling temperature and times previously described for HIV-1 US/MS cDNAs except α1, 2, and 3 annealing temperatures were 61 °C[9],[73]. All data was normalized to β-actin as internal loading control. Primers sequences for NKA α subunits were as follows: α1 forward (5′-[…] -3′), α1 reverse (5′- […] -3′), α2 forward (5′-[…]-3′), α2 reverse (5′-[…]-3′), α3 forward (5′-[…]-3′), and α3 reverse (5′-GGGCAGACTCAGACGCATC-3′). Monitoring the subcellular localization of HIV-1 genomic RNA. HeLa rtTA-HIV(Gag-GFP) cells were seeded on cover slips, treated with drug/compound, and processed for FISH to detect HIV-1 US RNAs using Stellaris™ probes (Biosearch Technologies) as previously detailed[10],[11].

The subject of the next assay is HeLa rtTA-HIV-ΔMls cells. Briefly: In vitro therapeutic index (CC20/IC50) in HeLa rtTA-HIV-ΔMls cells. Type of assay: cell-based, human. An excerpt: Without median toxic dose (TD50) and half-maximal effective concentration (EC50) data available to calculate TIs (in vivo) from HIV patients treated with CSs, we determined the following TIs for each cell type treated with a CS (summarized in Supplementary Table S1): in vitro TIs from HeLa rtTA-HIV-ΔMls cells using CC20/IC50 (instead of CC50/IC50), in vitro TIs from 24ST1NLESG cells using CC50/IC50, and ex vivo TIs from HIV-infected PBMCs using CC50/IC50 (at day 14 of culture approximated from available cell viability trends for CC50s of Supplementary Fig. S13 and inferred near maximal IC50s).
Supplementary Table S1. Comparison of the in vitro (IVTI) and ex vivo therapeutic indices (EVTIs) of CSs and their impact on the expression of essential HIV-1 proteins.
Notes: data for CC20, CC50, and IC50s for each drug/compound were estimated from dose response curves in Figures 1-2, Supplementary Table S1, Supplementary Figures S2, S5, and S13, and Wong et al.
">" means the estimate has not been accurately determined but is greater than the highest concentration […]
"( )" indicates preliminary data that was not shown. aCC20 instead of CC50 was estimated from dose response curves and used for calculation of IVTIs. bCells were treated at ~IC90of a CS.
(1 picture or pasted object on this page, not shown here)

Like-named read-outs stand apart in the source and are kept apart here.

With `C[C@]12CC[C@H](O)C[C@H]1CC[C@@H]1[C@@H]2CC[C@]2(C)[C@@H](c3ccc(=O)oc3)CC[C@]12O` [Bufalin], in assay [1], the “IC50 lower for HIV-1 inhibition compared to digoxin” value came to 9 fold and the “better anti-HIV-1 activity than digoxin” value is on record as 9 fold. In assay [1] (Human immunodeficiency virus 1, HeLa, read-out: IC50 (nM) HeLa rtTA-HIV-ΔMls), the IC50 stood at 5 nM. Moreover, in assay [1] (Human immunodeficiency virus 1, HeLa, read-out: IC90, HIV-1 (Gag) gene expression), the IC90 worked out at 15 nM. Moreover, in assay [1] (Human immunodeficiency virus 1, HeLa, read-out: ~IC80 (approximate concentration used in experiments)), the IC80 is around 11 nM. The IC90 in assay [1] (Human immunodeficiency virus 1, HeLa, read-out: ~IC90 (approximate concentration used in experiments)) is around 15 nM. Besides, the “HIV-1 US RNA subcellular localization” value in the assay on HIV-1 US RNAs is “almost exclusively within the nucleus”. Also, the “better in vitro TI than digoxin” value in the assay with HeLa rtTA-HIV-ΔMls cells was 9 fold.

As usually defined, the IC50 is the concentration needed to halve the response being measured.
